Measured values published in US20250243180A1, “TARGETED PROTEIN DEGRADATION” (Monte Rosa Therapeutics AG, priority 2023, published 2025).

target: NEK7 (Homo sapiens (Human), UniProt Q8TDX7+Q96SW2); assay: NEK7 NanoBiT degradation assay in Cal51 NEK7 NanoBiT cell line; format: cell-based; details: CAL-51; Cal51 NEK7 NanoBiT cells, 24 hours; read-out: NEK7 NanoBiT Dmax
How it was run: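 Cal51 cells with CRISPR knock-in HiBiT-tagged endogenous NEK7 plus stable LgBiT, in live-cell Endurazine medium, seeded 16 h before dosing. Compounds at final 1 μM to 0.05 nM for 24 h at 37 °C, then luminescence read. Response normalized to plate controls and fitted with a 4-parameter logistic giving EC50.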

Sequence of NEK7 (Q8TDX7 whole entry): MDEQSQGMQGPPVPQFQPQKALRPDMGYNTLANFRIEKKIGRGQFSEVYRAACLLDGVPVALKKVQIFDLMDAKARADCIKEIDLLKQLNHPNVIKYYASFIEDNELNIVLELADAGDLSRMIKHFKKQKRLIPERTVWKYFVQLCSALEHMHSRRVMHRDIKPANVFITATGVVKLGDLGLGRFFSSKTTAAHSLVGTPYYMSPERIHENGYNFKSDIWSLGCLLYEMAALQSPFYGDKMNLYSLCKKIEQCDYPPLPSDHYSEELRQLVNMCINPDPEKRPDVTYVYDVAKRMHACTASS
Sequence of NEK7 (Q96SW2 whole entry): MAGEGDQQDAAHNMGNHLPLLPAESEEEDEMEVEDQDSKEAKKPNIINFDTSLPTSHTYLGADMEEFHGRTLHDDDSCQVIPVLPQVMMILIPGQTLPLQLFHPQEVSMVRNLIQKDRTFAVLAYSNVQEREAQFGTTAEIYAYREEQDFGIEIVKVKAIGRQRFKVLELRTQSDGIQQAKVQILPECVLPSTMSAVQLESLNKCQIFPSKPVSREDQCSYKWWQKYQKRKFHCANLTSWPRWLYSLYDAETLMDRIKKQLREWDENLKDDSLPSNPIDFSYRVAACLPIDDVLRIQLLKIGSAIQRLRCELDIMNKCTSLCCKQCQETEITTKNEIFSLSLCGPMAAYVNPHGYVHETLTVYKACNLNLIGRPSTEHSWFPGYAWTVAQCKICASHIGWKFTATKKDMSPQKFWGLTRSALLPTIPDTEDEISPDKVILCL
Sequence of NEK7 (Q16531 2-1140 partner): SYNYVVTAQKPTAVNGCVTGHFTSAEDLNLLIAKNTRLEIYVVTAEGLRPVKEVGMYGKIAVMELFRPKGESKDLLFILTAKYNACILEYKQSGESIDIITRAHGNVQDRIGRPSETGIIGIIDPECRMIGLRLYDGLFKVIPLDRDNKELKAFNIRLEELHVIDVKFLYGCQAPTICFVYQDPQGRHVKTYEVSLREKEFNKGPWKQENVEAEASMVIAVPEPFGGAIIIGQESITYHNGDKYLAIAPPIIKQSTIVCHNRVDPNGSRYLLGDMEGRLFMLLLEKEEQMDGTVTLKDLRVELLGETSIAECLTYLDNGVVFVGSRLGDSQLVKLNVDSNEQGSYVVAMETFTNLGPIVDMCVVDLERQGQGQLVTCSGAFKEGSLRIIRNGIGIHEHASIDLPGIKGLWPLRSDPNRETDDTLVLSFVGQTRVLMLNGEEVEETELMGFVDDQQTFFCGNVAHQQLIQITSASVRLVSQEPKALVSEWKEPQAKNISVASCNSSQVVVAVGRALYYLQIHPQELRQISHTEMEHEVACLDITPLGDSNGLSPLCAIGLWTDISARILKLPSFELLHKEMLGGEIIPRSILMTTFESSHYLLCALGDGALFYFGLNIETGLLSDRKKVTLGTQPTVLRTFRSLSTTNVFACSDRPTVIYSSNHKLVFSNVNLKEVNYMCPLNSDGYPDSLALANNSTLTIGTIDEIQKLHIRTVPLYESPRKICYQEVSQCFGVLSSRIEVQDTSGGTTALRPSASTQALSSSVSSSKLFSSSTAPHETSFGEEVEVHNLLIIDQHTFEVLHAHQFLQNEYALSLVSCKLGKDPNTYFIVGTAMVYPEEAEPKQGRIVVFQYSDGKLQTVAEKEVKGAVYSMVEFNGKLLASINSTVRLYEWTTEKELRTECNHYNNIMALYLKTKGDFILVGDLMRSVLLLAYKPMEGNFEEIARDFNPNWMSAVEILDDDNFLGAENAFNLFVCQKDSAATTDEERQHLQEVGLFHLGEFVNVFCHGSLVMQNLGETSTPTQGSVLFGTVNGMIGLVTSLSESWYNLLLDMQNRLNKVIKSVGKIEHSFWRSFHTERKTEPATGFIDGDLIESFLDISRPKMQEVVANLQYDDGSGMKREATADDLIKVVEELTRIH

Compound	Dmax [%]
CNS(=O)(=O)c1ccc(C(C)(C)C(=O)NCc2cc(Cl)c(C3CCC(=O)NC3=O)c(Cl)c2)cc1 (stereo not drawn) [Compound 61]	97
CC(C)(C(=O)NCc1cc(Cl)c(C2CCC(=O)NC2=O)c(Cl)c1)c1cccc(S(C)(=O)=O)c1 (stereo not drawn) [Compound 62]	96
CC(C)(C(=O)NCc1cc(Cl)c(C2CCC(=O)NC2=O)c(Cl)c1)c1ccnc2ccccc12 (stereo not drawn) [Compound 63]	62
CC(C)(C(=O)NCc1ccc(C2CCC(=O)NC2=O)c(Br)c1)c1ccc(F)cc1 (stereo not drawn) [Compound 64]	86
CC(C)(C(=O)NCc1cc(Cl)c(C2CCC(=O)NC2=O)c(Cl)c1)c1cccc(C(N)=O)c1 (stereo not drawn) [Compound 65]	98
CC(C)(C(=O)NCc1cc(Cl)c(C2CCC(=O)NC2=O)c(Cl)c1)c1ccc(S(C)(=O)=O)cc1 (stereo not drawn) [Compound 66]	96
Cn1cc(C(C)(C)C(=O)NCc2cc(Cl)c(C3CCC(=O)NC3=O)c(Cl)c2)ccc1=O (stereo not drawn) [Compound 67]	74
CC(C)(C(=O)NCc1cc(Cl)c(C2CCC(=O)NC2=O)c(Cl)c1)c1c(F)cncc1F (stereo not drawn) [Compound 68]	97
CC(C)(C(=O)NCc1cc(Cl)c(C2CCC(=O)NC2=O)c(Cl)c1)c1ccc2[nH]cnc2c1 (stereo not drawn) [Compound 69]	97

same assay, conditions: CAL-51; NEK7 degradation, Cal51 NEK7 NanoBiT cells, 24 hours; read-out: NanoBiT Dmax

Compound	Dmax [%]
CNS(=O)(=O)c1ccc(C(C)(C)C(=O)NCc2cc(Cl)c(C3CCC(=O)NC3=O)c(Cl)c2)cc1 (stereo not drawn) [Compound 61]	> 75
CC(C)(C(=O)NCc1cc(Cl)c(C2CCC(=O)NC2=O)c(Cl)c1)c1cccc(S(C)(=O)=O)c1 (stereo not drawn) [Compound 62]	> 75
CC(C)(C(=O)NCc1cc(Cl)c(C2CCC(=O)NC2=O)c(Cl)c1)c1ccnc2ccccc12 (stereo not drawn) [Compound 63]	50 to 75
CC(C)(C(=O)NCc1ccc(C2CCC(=O)NC2=O)c(Br)c1)c1ccc(F)cc1 (stereo not drawn) [Compound 64]	> 75
CC(C)(C(=O)NCc1cc(Cl)c(C2CCC(=O)NC2=O)c(Cl)c1)c1cccc(C(N)=O)c1 (stereo not drawn) [Compound 65]	> 75
CC(C)(C(=O)NCc1cc(Cl)c(C2CCC(=O)NC2=O)c(Cl)c1)c1ccc(S(C)(=O)=O)cc1 (stereo not drawn) [Compound 66]	> 75
Cn1cc(C(C)(C)C(=O)NCc2cc(Cl)c(C3CCC(=O)NC3=O)c(Cl)c2)ccc1=O (stereo not drawn) [Compound 67]	50 to 75
CC(C)(C(=O)NCc1cc(Cl)c(C2CCC(=O)NC2=O)c(Cl)c1)c1c(F)cncc1F (stereo not drawn) [Compound 68]	> 75
CC(C)(C(=O)NCc1cc(Cl)c(C2CCC(=O)NC2=O)c(Cl)c1)c1ccc2[nH]cnc2c1 (stereo not drawn) [Compound 69]	> 75

same assay, conditions: Cal51 NEK7 NanoBiT cells, 24 hours; read-out: NEK7 NanoBiT DC50

Compound	DC50 [nM]
CNS(=O)(=O)c1ccc(C(C)(C)C(=O)NCc2cc(Cl)c(C3CCC(=O)NC3=O)c(Cl)c2)cc1 (stereo not drawn) [Compound 61]	2
CC(C)(C(=O)NCc1cc(Cl)c(C2CCC(=O)NC2=O)c(Cl)c1)c1cccc(S(C)(=O)=O)c1 (stereo not drawn) [Compound 62]	2
CC(C)(C(=O)NCc1cc(Cl)c(C2CCC(=O)NC2=O)c(Cl)c1)c1ccnc2ccccc12 (stereo not drawn) [Compound 63]	91
CC(C)(C(=O)NCc1ccc(C2CCC(=O)NC2=O)c(Br)c1)c1ccc(F)cc1 (stereo not drawn) [Compound 64]	43
CC(C)(C(=O)NCc1cc(Cl)c(C2CCC(=O)NC2=O)c(Cl)c1)c1cccc(C(N)=O)c1 (stereo not drawn) [Compound 65]	1
CC(C)(C(=O)NCc1cc(Cl)c(C2CCC(=O)NC2=O)c(Cl)c1)c1ccc(S(C)(=O)=O)cc1 (stereo not drawn) [Compound 66]	3
Cn1cc(C(C)(C)C(=O)NCc2cc(Cl)c(C3CCC(=O)NC3=O)c(Cl)c2)ccc1=O (stereo not drawn) [Compound 67]	95
CC(C)(C(=O)NCc1cc(Cl)c(C2CCC(=O)NC2=O)c(Cl)c1)c1c(F)cncc1F (stereo not drawn) [Compound 68]	1
CC(C)(C(=O)NCc1cc(Cl)c(C2CCC(=O)NC2=O)c(Cl)c1)c1ccc2[nH]cnc2c1 (stereo not drawn) [Compound 69]	1

same assay, conditions: NEK7 degradation, Cal51 NEK7 NanoBiT cells, 24 hours; read-out: NanoBiT DC50

Compound	DC50 [nM]
CNS(=O)(=O)c1ccc(C(C)(C)C(=O)NCc2cc(Cl)c(C3CCC(=O)NC3=O)c(Cl)c2)cc1 (stereo not drawn) [Compound 61]	≤ 100
CC(C)(C(=O)NCc1cc(Cl)c(C2CCC(=O)NC2=O)c(Cl)c1)c1cccc(S(C)(=O)=O)c1 (stereo not drawn) [Compound 62]	≤ 100
CC(C)(C(=O)NCc1cc(Cl)c(C2CCC(=O)NC2=O)c(Cl)c1)c1ccnc2ccccc12 (stereo not drawn) [Compound 63]	≤ 100
CC(C)(C(=O)NCc1ccc(C2CCC(=O)NC2=O)c(Br)c1)c1ccc(F)cc1 (stereo not drawn) [Compound 64]	≤ 100
CC(C)(C(=O)NCc1cc(Cl)c(C2CCC(=O)NC2=O)c(Cl)c1)c1cccc(C(N)=O)c1 (stereo not drawn) [Compound 65]	≤ 100
CC(C)(C(=O)NCc1cc(Cl)c(C2CCC(=O)NC2=O)c(Cl)c1)c1ccc(S(C)(=O)=O)cc1 (stereo not drawn) [Compound 66]	≤ 100
Cn1cc(C(C)(C)C(=O)NCc2cc(Cl)c(C3CCC(=O)NC3=O)c(Cl)c2)ccc1=O (stereo not drawn) [Compound 67]	≤ 100
CC(C)(C(=O)NCc1cc(Cl)c(C2CCC(=O)NC2=O)c(Cl)c1)c1c(F)cncc1F (stereo not drawn) [Compound 68]	≤ 100
CC(C)(C(=O)NCc1cc(Cl)c(C2CCC(=O)NC2=O)c(Cl)c1)c1ccc2[nH]cnc2c1 (stereo not drawn) [Compound 69]	≤ 100

target: CRBN-DDB1 (Homo sapiens (Human), UniProt Q96SW2); assay: Compound binding to CRBN by HTRF assay; details: not given
How it was run: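 HTRF displacement of Cy5-thalidomide probe (100 nM) from His-tagged CRBN-DDB1 (2.5 nM) with anti-His terbium cryptate, in HEPES/NaCl/TCEP/EDTA/Tween20 buffer; 11-point 1:3 dilution series, 30 min at ambient temperature. Signal (665/620 nm) normalized to lenalidomide and DMSO controls; EC50 fitted, Ki by Cheng-Prusoff from geometric mean EC50.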

Sequence of CRBN-DDB1 (Q96SW2 whole entry): as the sequence (Q96SW2 whole entry) above
Sequence of CRBN-DDB1 (Q16531 whole entry partner): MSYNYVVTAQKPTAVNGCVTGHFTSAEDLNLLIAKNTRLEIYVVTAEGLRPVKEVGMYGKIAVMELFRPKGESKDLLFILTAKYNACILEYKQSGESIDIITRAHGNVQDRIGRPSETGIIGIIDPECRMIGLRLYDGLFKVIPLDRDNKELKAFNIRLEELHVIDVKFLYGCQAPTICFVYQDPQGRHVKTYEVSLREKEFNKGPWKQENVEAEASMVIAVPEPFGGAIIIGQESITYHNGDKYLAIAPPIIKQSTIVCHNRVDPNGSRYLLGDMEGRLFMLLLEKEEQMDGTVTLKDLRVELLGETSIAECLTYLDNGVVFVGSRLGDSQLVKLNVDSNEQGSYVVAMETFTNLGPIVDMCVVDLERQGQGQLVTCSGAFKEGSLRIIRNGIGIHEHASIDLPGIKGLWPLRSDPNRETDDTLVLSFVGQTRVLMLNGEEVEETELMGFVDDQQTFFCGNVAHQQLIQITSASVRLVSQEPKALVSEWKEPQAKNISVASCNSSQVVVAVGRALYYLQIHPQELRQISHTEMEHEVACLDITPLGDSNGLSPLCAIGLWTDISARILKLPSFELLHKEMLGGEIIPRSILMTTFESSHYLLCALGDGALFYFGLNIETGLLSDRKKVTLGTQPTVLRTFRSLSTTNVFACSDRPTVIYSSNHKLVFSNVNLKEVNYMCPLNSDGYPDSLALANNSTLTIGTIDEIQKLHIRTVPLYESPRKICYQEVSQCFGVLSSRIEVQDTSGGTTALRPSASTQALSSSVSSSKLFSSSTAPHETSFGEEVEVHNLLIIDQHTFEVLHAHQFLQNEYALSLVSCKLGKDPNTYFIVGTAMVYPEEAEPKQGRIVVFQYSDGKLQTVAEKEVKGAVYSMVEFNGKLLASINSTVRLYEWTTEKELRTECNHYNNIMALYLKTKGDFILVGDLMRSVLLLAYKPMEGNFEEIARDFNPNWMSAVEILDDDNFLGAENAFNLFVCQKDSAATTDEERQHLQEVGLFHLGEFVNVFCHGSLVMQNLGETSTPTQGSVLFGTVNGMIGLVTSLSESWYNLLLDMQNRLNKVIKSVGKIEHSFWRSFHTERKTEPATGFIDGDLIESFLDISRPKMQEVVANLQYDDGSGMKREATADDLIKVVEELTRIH

Compound	EC50 [nM]
CNS(=O)(=O)c1ccc(C(C)(C)C(=O)NCc2cc(Cl)c(C3CCC(=O)NC3=O)c(Cl)c2)cc1 (stereo not drawn) [Compound 61]	60
CC(C)(C(=O)NCc1cc(Cl)c(C2CCC(=O)NC2=O)c(Cl)c1)c1cccc(S(C)(=O)=O)c1 (stereo not drawn) [Compound 62]	50
CC(C)(C(=O)NCc1cc(Cl)c(C2CCC(=O)NC2=O)c(Cl)c1)c1ccnc2ccccc12 (stereo not drawn) [Compound 63]	140
CC(C)(C(=O)NCc1ccc(C2CCC(=O)NC2=O)c(Br)c1)c1ccc(F)cc1 (stereo not drawn) [Compound 64]	490
CC(C)(C(=O)NCc1cc(Cl)c(C2CCC(=O)NC2=O)c(Cl)c1)c1cccc(C(N)=O)c1 (stereo not drawn) [Compound 65]	140
CC(C)(C(=O)NCc1cc(Cl)c(C2CCC(=O)NC2=O)c(Cl)c1)c1ccc(S(C)(=O)=O)cc1 (stereo not drawn) [Compound 66]	90
Cn1cc(C(C)(C)C(=O)NCc2cc(Cl)c(C3CCC(=O)NC3=O)c(Cl)c2)ccc1=O (stereo not drawn) [Compound 67]	220
CC(C)(C(=O)NCc1cc(Cl)c(C2CCC(=O)NC2=O)c(Cl)c1)c1c(F)cncc1F (stereo not drawn) [Compound 68]	90
CC(C)(C(=O)NCc1cc(Cl)c(C2CCC(=O)NC2=O)c(Cl)c1)c1ccc2[nH]cnc2c1 (stereo not drawn) [Compound 69]	60

same assay, conditions: HTRF class; Cereblon binding

Compound	EC50 [nM]
CNS(=O)(=O)c1ccc(C(C)(C)C(=O)NCc2cc(Cl)c(C3CCC(=O)NC3=O)c(Cl)c2)cc1 (stereo not drawn) [Compound 61]	≤ 100
CC(C)(C(=O)NCc1cc(Cl)c(C2CCC(=O)NC2=O)c(Cl)c1)c1cccc(S(C)(=O)=O)c1 (stereo not drawn) [Compound 62]	≤ 100
CC(C)(C(=O)NCc1cc(Cl)c(C2CCC(=O)NC2=O)c(Cl)c1)c1ccnc2ccccc12 (stereo not drawn) [Compound 63]	100 to 1000
CC(C)(C(=O)NCc1ccc(C2CCC(=O)NC2=O)c(Br)c1)c1ccc(F)cc1 (stereo not drawn) [Compound 64]	100 to 1000
CC(C)(C(=O)NCc1cc(Cl)c(C2CCC(=O)NC2=O)c(Cl)c1)c1cccc(C(N)=O)c1 (stereo not drawn) [Compound 65]	100 to 1000
CC(C)(C(=O)NCc1cc(Cl)c(C2CCC(=O)NC2=O)c(Cl)c1)c1ccc(S(C)(=O)=O)cc1 (stereo not drawn) [Compound 66]	≤ 100
Cn1cc(C(C)(C)C(=O)NCc2cc(Cl)c(C3CCC(=O)NC3=O)c(Cl)c2)ccc1=O (stereo not drawn) [Compound 67]	100 to 1000
CC(C)(C(=O)NCc1cc(Cl)c(C2CCC(=O)NC2=O)c(Cl)c1)c1c(F)cncc1F (stereo not drawn) [Compound 68]	≤ 100
CC(C)(C(=O)NCc1cc(Cl)c(C2CCC(=O)NC2=O)c(Cl)c1)c1ccc2[nH]cnc2c1 (stereo not drawn) [Compound 69]	≤ 100
